Experimental data: patent US20250179103A1, “6-OXODECAHYDROPYRROLO[1,2-A][1,5]DIAZOCINE AND 6-OXODECAHYDRO-4H-PYRROLO[2,1-D][1,5]THIAZOCINE DERIVATIVES AS STAT3 AND STAT6 MODULATORS FOR THE TREATMENT OF CANCER AND INFLAMMATORY CONDITIONS” (Recludix Pharma, Inc., priority 2022, published 2025)
One block for each compound: values may come before it.

What was measured:
[1] = molecular target: T1, Recombinant STAT3 protein (STAT3(G127-I722)) (Homo sapiens, UniProt P40763); experiment: STAT3 Fluorescence Polarization (FP) Assay; assay type: binding; settings: STAT3(G127-I722) 25 nM, probe 5-FAM-GpYLPQTV-NH2 2 nM, 45-minute incubation
T1 construct: Recombinant STAT3 protein (STAT3(G127-I722))
T1 sequence (P40763 127-722): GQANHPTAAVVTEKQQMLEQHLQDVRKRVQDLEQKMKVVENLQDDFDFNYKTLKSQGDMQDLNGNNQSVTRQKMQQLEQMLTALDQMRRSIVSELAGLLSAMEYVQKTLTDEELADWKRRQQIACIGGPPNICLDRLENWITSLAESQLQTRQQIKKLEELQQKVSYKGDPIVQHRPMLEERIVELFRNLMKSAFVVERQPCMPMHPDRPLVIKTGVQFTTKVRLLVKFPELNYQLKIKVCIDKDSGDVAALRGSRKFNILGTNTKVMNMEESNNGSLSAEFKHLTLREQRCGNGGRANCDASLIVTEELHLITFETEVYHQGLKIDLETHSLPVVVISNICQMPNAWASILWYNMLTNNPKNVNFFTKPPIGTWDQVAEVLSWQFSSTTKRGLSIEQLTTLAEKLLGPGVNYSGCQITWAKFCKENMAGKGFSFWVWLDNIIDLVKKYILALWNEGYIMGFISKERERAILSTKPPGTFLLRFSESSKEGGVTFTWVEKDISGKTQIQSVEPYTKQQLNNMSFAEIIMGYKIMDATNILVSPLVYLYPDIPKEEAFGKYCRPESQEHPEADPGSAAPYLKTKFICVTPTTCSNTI
Outline: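 Fluorescence polarization after a 45-min room-temperature incubation measured compound displacement of a 2 nM fluorescein-labelled phosphotyrosine peptide (5-FAM-GpYLPQTV-NH2) from 25 nM recombinant STAT3(G127-I722). Buffer was 10 mM HEPES pH 7.4 with 1% DMSO final. IC50s were fitted by nonlinear regression of mP against log concentration.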

[2] = molecular target: T2, Recombinant STAT6 protein (STAT6(W123-T658)) (Homo sapiens, UniProt P42226); experiment: STAT6 Fluorescence Polarization (FP) Assay; assay type: binding; settings: STAT6(W123-T658) 250 nM, probe 5-FAM-ApYKPFQDLI-NH2 2 nM, 45-minute incubation
T2 construct: Recombinant STAT6 protein (STAT6(W123-T658))
T2 sequence (P42226 123-658): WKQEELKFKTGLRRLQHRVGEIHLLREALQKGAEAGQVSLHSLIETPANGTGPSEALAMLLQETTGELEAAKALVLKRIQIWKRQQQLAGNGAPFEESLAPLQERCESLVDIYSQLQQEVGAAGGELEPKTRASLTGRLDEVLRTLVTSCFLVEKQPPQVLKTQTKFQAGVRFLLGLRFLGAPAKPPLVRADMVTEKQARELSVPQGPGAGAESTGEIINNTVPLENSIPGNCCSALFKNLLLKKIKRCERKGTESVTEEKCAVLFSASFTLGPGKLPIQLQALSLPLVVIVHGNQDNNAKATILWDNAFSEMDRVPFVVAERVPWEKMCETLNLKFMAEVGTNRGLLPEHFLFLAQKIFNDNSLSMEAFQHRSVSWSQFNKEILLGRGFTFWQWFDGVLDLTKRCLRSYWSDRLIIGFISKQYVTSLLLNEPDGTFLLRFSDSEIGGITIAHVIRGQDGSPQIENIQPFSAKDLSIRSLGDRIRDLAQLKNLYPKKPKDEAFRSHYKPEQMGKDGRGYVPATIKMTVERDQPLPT
Outline: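 Displacement of a fluorescent phosphotyrosine peptide (5-FAM-ApYKPFQDLI-NH2, 2 nM) from STAT6(W123-T658) (250 nM), 1% DMSO, pH 7.4 HEPES buffer. After 45 min at room temperature, polarization (mP) was plotted versus log compound concentration and fitted by nonlinear regression to give IC50.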

Compound: CC(=O)N1CC[C@H]2CC[C@@H](C(=O)N(C)c3ccccc3)N2C(=O)[C@@H](NC(=O)c2ccc3cc(C(F)(F)P(=O)(O)O)ccc3c2)C1 [Compound 112, ((6-(((5S,8S,10aR)-3-acetyl-8-(methyl(phenyl)carbamoyl)-6-oxodecahydropyrrolo[1,2-a][1,5]diazocin-5-yl)carbamoyl)naphthalen-2-yl)difluoromethyl)phosphonic acid]
IC50 [1]: > 10 µM
IC50 [2]: > 30 µM

Compound: CC(=O)N1CC[C@H]2CC[C@@H](C(=O)Nc3ccc(-c4ccccc4)cc3)N2C(=O)[C@@H](NC(=O)/C=C/c2ccc(C(F)(F)P(=O)(O)O)cc2)C1 [Compound 121, ((4-((E)-3-(((5S,8S,10aR)-8-([1,1′-biphenyl]-4-ylcarbamoyl)-3-acetyl-6-oxodecahydropyrrolo[1,2-a][1,5]diazocin-5-yl)amino)-3-oxoprop-1-en-1-yl)phenyl)difluoromethyl)phosphonic acid]
IC50 [1]: > 10 µM
IC50 [2]: 3 to 30 µM

Compound: CC(=O)N1CC[C@H]2CC[C@@H](C(=O)N3C[C@@H](O)[C@H](n4ccnn4)C3)N2C(=O)[C@@H](NC(=O)c2ccc3ccc(C(F)(F)P(=O)(O)O)cc3c2)C1 (relative stereo) [Compound 5, ((7-(((5S,8S,10aR)-3-acetyl-8-((3R,4R)-3-hydroxy-4-(1H-1,2,3-triazol-1-yl)pyrrolidine-1-carbonyl)-6-oxodecahydropyrrolo[1,2-a][1,5]diazocin-5-yl)carbamoyl)naphthalen-2-yl)difluoromethyl)phosphonic Acid]
IC50 [1]: 1 to 10 µM
IC50 [2]: 0.3 to 3 µM

Now from value to compound:

IC50 [1]: 1 to 10 µM
IC50 [2]: 0.3 to 3 µM
Compound: CC(=O)N1CC[C@H]2CC[C@@H](C(=O)Nc3ccc4cn(C)nc4c3)N2C(=O)[C@@H](NC(=O)c2cc3cc(C(F)(F)P(=O)(O)O)ccc3s2)C1 [Compound 157, ((2-(((5S,8S,10aR)-3-acetyl-8-((2-methyl-2H-indazol-6-yl)carbamoyl)-6-oxodecahydropyrrolo[1,2-a][1,5]diazocin-5-yl)carbamoyl)benzo[b]thiophen-5-yl)difluoromethyl)phosphonic acid]

IC50 [1]: 1 to 10 µM
IC50 [2]: 0.3 to 3 µM
Compound: C[C@H](C(=O)N1CC[C@H]2CC[C@@H](C(=O)N(C)c3ccccc3)N2C(=O)[C@@H](NC(=O)c2cc3cc(C(F)(F)P(=O)(O)O)ccc3[nH]2)C1)c1ccccc1 [Compound 216, (difluoro(2-(((5S,8S,10aR)-8-(methyl(phenyl)carbamoyl)-6-oxo-3-((S)-2-phenylpropanoyl)decahydropyrrolo[1,2 a][1,5]diazocin-5-yl)carbamoyl)-1H-indol-5-yl)methyl)phosphonic acid]

IC50 [1]: ≤ 0.1 µM
IC50 [2]: 3 to 30 µM
Compound: O=C(N[C@H]1CN(Cc2ccccc2-n2cncn2)CC[C@H]2CC[C@@H](C(=O)N3CC(c4cccnc4)C3)N2C1=O)c1cc2cc(C(F)(F)P(=O)(O)O)ccc2s1 [Compound 402, ((2-(((5S,8S,10aR)-3-(2-(1H-1,2,4-triazol-1-yl)benzyl)-6-oxo-8-(3-(pyridin-3-yl)azetidine-1-carbonyl)decahydro-pyrrolo[1,2-a][1,5]diazocin-5-yl)carbamoyl)benzo[b]thiophen-5-yl)difluoromethyl) phosphonic acid]

IC50 [1]: 0.1 to 1 µM
IC50 [2]: 0.3 to 3 µM
Compound: CC(=O)N1CC[C@H]2CC[C@@H](C(=O)Nc3ccn(-c4ccccc4)c(=O)c3)N2C(=O)[C@@H](NC(=O)c2cc3cc(C(F)(F)P(=O)(O)O)ccc3[nH]2)C1 [Compound 140, ((2-(((5S,8S,10aR)-3-acetyl-6-oxo-8-((2-oxo-1-phenyl-1,2-dihydropyridin-4-yl)carbamoyl)decahydropyrrolo[1,2-a][1,5]diazocin-5-yl)carbamoyl)-1H-indol-5-yl)difluoromethyl)phosphonic acid]
